# Laboratory results published in PubChem BioAssay (NCI).
#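 Results reflect a 48-hour exposure of cells in 96-well plates to compound at five concentrations. TGI: total growth inhibition.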
# Experiments:
# Assay in all cases: NCI anticancer screen, dose series, 48 h
# 786-0 renal = tested on: 786-0 renal
# A498 renal = tested on: A498 renal
# A549 NSCLC = tested on: A549 NSCLC
# ACHN renal = tested on: ACHN renal
# BT-549 breast = tested on: BT-549 breast
# CAKI-1 renal = tested on: CAKI-1 renal
# CCRF-CEM leukemia = tested on: CCRF-CEM leukemia
# COLO 205 colon = tested on: COLO 205 colon
# DU-145 prostate = tested on: DU-145 prostate
# EKVX NSCLC = tested on: EKVX NSCLC
# HCC-2998 colon = tested on: HCC-2998 colon
# HCT-116 colon = tested on: HCT-116 colon
# HCT-15 colon = tested on: HCT-15 colon
# HL-60(TB) leukemia = tested on: HL-60(TB) leukemia
# HOP-62 NSCLC = tested on: HOP-62 NSCLC
# HOP-92 NSCLC = tested on: HOP-92 NSCLC
# HS 578T breast = tested on: HS 578T breast
# HT29 colon = tested on: HT29 colon
# IGROV1 ovarian = tested on: IGROV1 ovarian
# K-562 leukemia = tested on: K-562 leukemia
# KM12 colon = tested on: KM12 colon
# LOX IMVI melanoma = tested on: LOX IMVI melanoma
# M14 melanoma = tested on: M14 melanoma
# MALME-3M melanoma = tested on: MALME-3M melanoma
# MCF7 breast = tested on: MCF7 breast
# MDA-MB-231 breast = tested on: MDA-MB-231 breast
# MDA-MB-435 = tested on: MDA-MB-435
# MDA-N = tested on: MDA-N
# MOLT-4 leukemia = tested on: MOLT-4 leukemia
# NCI-H226 lung = tested on: NCI-H226 lung
# NCI-H23 lung = tested on: NCI-H23 lung
# NCI-H460 lung = tested on: NCI-H460 lung
# NCI-H522 lung = tested on: NCI-H522 lung
# NCI/ADR-RES ovarian = tested on: NCI/ADR-RES ovarian
# OVCAR-3 ovarian = tested on: OVCAR-3 ovarian
# OVCAR-4 ovarian = tested on: OVCAR-4 ovarian
# OVCAR-5 ovarian = tested on: OVCAR-5 ovarian
# OVCAR-8 ovarian = tested on: OVCAR-8 ovarian
# PC-3 prostate = tested on: PC-3 prostate
# RPMI-8226 leukemia = tested on: RPMI-8226 leukemia
# RXF 393 renal = tested on: RXF 393 renal
# SF-268 CNS = tested on: SF-268 CNS
# SF-295 CNS = tested on: SF-295 CNS
# SF-539 CNS = tested on: SF-539 CNS
# SK-MEL-2 melanoma = tested on: SK-MEL-2 melanoma
# SK-MEL-28 melanoma = tested on: SK-MEL-28 melanoma
# SK-MEL-5 melanoma = tested on: SK-MEL-5 melanoma
# SK-OV-3 ovarian = tested on: SK-OV-3 ovarian
# SN12C renal = tested on: SN12C renal
# SNB-19 CNS = tested on: SNB-19 CNS
# SNB-75 CNS = tested on: SNB-75 CNS
# SR leukemia = tested on: SR leukemia
# SW-620 colon = tested on: SW-620 colon
# T-47D breast = tested on: T-47D breast
# TK-10 renal = tested on: TK-10 renal
# U251 CNS = tested on: U251 CNS
# UACC-257 melanoma = tested on: UACC-257 melanoma
# UACC-62 melanoma = tested on: UACC-62 melanoma
# UO-31 renal = tested on: UO-31 renal
compound,measurement,setting,value
COC(=O)CCC(=O)NC1=C(Nc2ccccc2)C(=O)c2ccccc2C1=O,TGI,786-0 renal,25.4 µM
same,TGI,A498 renal,28.6 µM
same,TGI,A549 NSCLC,37 µM
same,TGI,ACHN renal,29.5 µM
same,TGI,BT-549 breast,23.4 µM
same,TGI,CAKI-1 renal,27.5 µM
same,TGI,CCRF-CEM leukemia,42.9 µM
same,TGI,COLO 205 colon,35.3 µM
same,TGI,DU-145 prostate,23.2 µM
same,TGI,EKVX NSCLC,34.2 µM
same,TGI,HCC-2998 colon,37.9 µM
same,TGI,HCT-116 colon,23 µM
same,TGI,HCT-15 colon,27.6 µM
same,TGI,HL-60(TB) leukemia,13.5 µM
same,TGI,HOP-62 NSCLC,32.1 µM
same,TGI,HOP-92 NSCLC,31.7 µM
same,TGI,HS 578T breast,32.7 µM
same,TGI,HT29 colon,35.7 µM
same,TGI,IGROV1 ovarian,26 µM
same,TGI,K-562 leukemia,> 57.6 µM
same,TGI,KM12 colon,32.5 µM
same,TGI,LOX IMVI melanoma,13.9 µM
same,TGI,M14 melanoma,7.27 µM
same,TGI,MALME-3M melanoma,5.61 µM
same,TGI,MCF7 breast,10.4 µM
same,TGI,MDA-MB-231 breast,30.1 µM
same,TGI,MDA-MB-435,3.45 µM
same,TGI,MDA-N,3.59 µM
same,TGI,MOLT-4 leukemia,38.9 µM
same,TGI,NCI-H226 lung,28.6 µM
same,TGI,NCI-H23 lung,12.9 µM
same,TGI,NCI-H460 lung,31.9 µM
same,TGI,NCI-H522 lung,29.2 µM
same,TGI,NCI/ADR-RES ovarian,39.9 µM
same,TGI,OVCAR-3 ovarian,10.4 µM
same,TGI,OVCAR-4 ovarian,22.9 µM
same,TGI,OVCAR-5 ovarian,19.7 µM
same,TGI,OVCAR-8 ovarian,47.4 µM
same,TGI,PC-3 prostate,65.2 µM
same,TGI,RPMI-8226 leukemia,52.3 µM
same,TGI,RXF 393 renal,21.4 µM
same,TGI,SF-268 CNS,51.5 µM
same,TGI,SF-295 CNS,29.9 µM
same,TGI,SF-539 CNS,29.1 µM
same,TGI,SK-MEL-2 melanoma,16.4 µM
same,TGI,SK-MEL-28 melanoma,17.7 µM
same,TGI,SK-MEL-5 melanoma,3.3 µM
same,TGI,SK-OV-3 ovarian,30.9 µM
same,TGI,SN12C renal,28.9 µM
same,TGI,SNB-19 CNS,31.4 µM
same,TGI,SNB-75 CNS,33.2 µM
same,TGI,SR leukemia,56.7 µM
same,TGI,SW-620 colon,30.6 µM
same,TGI,T-47D breast,32.8 µM
same,TGI,TK-10 renal,41.6 µM
same,TGI,U251 CNS,24.2 µM
same,TGI,UACC-257 melanoma,9.76 µM
same,TGI,UACC-62 melanoma,7.55 µM
same,TGI,UO-31 renal,32.2 µM
Oc1cccc2c(Br)ccnc12,TGI,786-0 renal,> 100 µM
same,TGI,A498 renal,39.1 µM
same,TGI,A549 NSCLC,> 100 µM
same,TGI,ACHN renal,27.5 µM
same,TGI,BT-549 breast,> 45.7 µM
same,TGI,CAKI-1 renal,> 100 µM
same,TGI,CCRF-CEM leukemia,4.1 µM
same,TGI,COLO 205 colon,27.3 µM
same,TGI,DU-145 prostate,39.5 µM
same,TGI,EKVX NSCLC,11.6 µM
same,TGI,HCC-2998 colon,31.7 µM
same,TGI,HCT-116 colon,12.2 µM
same,TGI,HCT-15 colon,24.2 µM
same,TGI,HL-60(TB) leukemia,0.983 µM
same,TGI,HOP-62 NSCLC,> 69 µM
same,TGI,HOP-92 NSCLC,23 µM
same,TGI,HS 578T breast,50.5 µM
same,TGI,HT29 colon,19.4 µM
same,TGI,IGROV1 ovarian,9.41 µM
same,TGI,K-562 leukemia,> 22.5 µM
same,TGI,KM12 colon,21.1 µM
same,TGI,LOX IMVI melanoma,12.7 µM
same,TGI,M14 melanoma,16.3 µM
same,TGI,MALME-3M melanoma,21.2 µM
same,TGI,MCF7 breast,> 31.6 µM
same,TGI,MDA-MB-231 breast,16.3 µM
same,TGI,MDA-MB-435,34.3 µM
same,TGI,MDA-N,> 50.4 µM
same,TGI,MOLT-4 leukemia,6.91 µM
same,TGI,NCI-H226 lung,29.8 µM
same,TGI,NCI-H23 lung,17.1 µM
same,TGI,NCI-H460 lung,42 µM
same,TGI,NCI-H522 lung,17.1 µM
same,TGI,NCI/ADR-RES ovarian,12.7 µM
same,TGI,OVCAR-3 ovarian,7.81 µM
same,TGI,OVCAR-4 ovarian,10.2 µM
same,TGI,OVCAR-5 ovarian,20 µM
same,TGI,OVCAR-8 ovarian,> 36.2 µM
same,TGI,PC-3 prostate,38.1 µM
same,TGI,RPMI-8226 leukemia,4.72 µM
same,TGI,RXF 393 renal,32.4 µM
same,TGI,SF-268 CNS,14.2 µM
same,TGI,SF-295 CNS,> 100 µM
same,TGI,SF-539 CNS,> 49.1 µM
same,TGI,SK-MEL-2 melanoma,27.1 µM
same,TGI,SK-MEL-28 melanoma,38.3 µM
same,TGI,SK-MEL-5 melanoma,14.2 µM
same,TGI,SK-OV-3 ovarian,66.8 µM
same,TGI,SN12C renal,21.7 µM
same,TGI,SNB-19 CNS,64.1 µM
same,TGI,SNB-75 CNS,66.2 µM
same,TGI,SR leukemia,4.31 µM
same,TGI,SW-620 colon,16.7 µM
same,TGI,T-47D breast,> 51.5 µM
same,TGI,TK-10 renal,> 100 µM
same,TGI,U251 CNS,20.4 µM
same,TGI,UACC-257 melanoma,16.1 µM
same,TGI,UACC-62 melanoma,11.1 µM
same,TGI,UO-31 renal,21.6 µM
